Like-named read-outs stand apart in the source and are kept apart here.
How the values were obtained:
[1] = tested on: lineage marker gene expression in hEBs; experiment: Gene expression profile of day 15 hEBs (RT-PCR, densitometry) and ID50; assay type: cell-based, human; conditions: for lineage markers down-regulated / affected: summary statement, hEBs
Procedure: On the 15th day, differentiated cells that are adherent are washed with 2 ml DPBS and trypsinized (0.05%) from 24 well plates and collected in a tube. The tube is centrifuged at 2000 rpm for 10 minutes to pellet the cells. The total RNA is isolated using TRIzol (Invitrogen Corporation) following the manufacturer's instructions. The RNA is quantified by absorbance at 260 nm, and 1-2 μg of RNA from control and drug treated cells are converted to cDNA using Superscript cDNA synthesis kit (Invitrogen Corporation) following the manufacturer's instructions. cDNA was used to study the expression of genes specific for ectoderm, mesoderm, and endoderm, by an appropriate method, such as RT-PCR, qPCR, or microarray. Markers indicative of each lineage are used.
The changes in gene expression in the presence or absence of the drug are compared. Changes in a mesodermal marker representative of cardiogenesis is used to calculate ID50 values of the tested compounds, and densitometry of the band intensities from RT-PCR, or CT values from qPCR, are used to calculate the ID50 values.
Various compounds were tested for their effect on the gene expression profiles of homeobox transcription factor Nanog (“NANOG”; GenBank Accession Number AB093576), neurofilament, heavy polypeptide 200 KDa (“NEFH” or “NFH”; GenBank Accession Number X15307), keratin-15 (“KRT15”; GenBank Accession Number X07696), actin, alpha, cardiac muscle (“ACTC1”; GenBank Accession Number NM_005159), msh homeobox 1 (“MSX1”; GenBank Accession Number BC067353), CD34 molecule (“CD34”; GenBank Accession Number BC039146), alpha fetoprotein (“AFP”; GenBank Accession Number J00077), serum albumin (“ALB”; GenBank Accession Number M12523), bone morphogenetic protein 4 (“BMP4”; GenBank Accession Number NM_130850), and bone morphogenetic protein 5 (“BMP5”; GenBank Accession Number M60314) in hEBs. Glyceraldehyde-3-phosphate dehydrogenase (“GAPDH”; GenBank Accession Number J04038) was used as a control.
RNA was extracted from different drug treated groups using the trizol method. One microgram of RNA was converted to cDNA using superscript reverse transcriptase. PCR was performed with the initial denaturation cycle at 94° C. for 5 min, followed by 35 cycles of 94° C. for 30 seconds, annealing temperature varying (Table 1) for 30 seconds, 72° C. for 1 minute, followed final extension at 72° C. for 5 min. Electrophoresis was performed on 1.5% agarose gels. Paired comparisons were conducted using a paired t test, and all data are presented as mean values±S.E. Differences were considered significant at a 0.05 level of confidence.
For calculating IC50-hES and ID50-hES cells, one petri dish was used per concentration of the test chemical, as well as for the untreated control (assay medium) and the solvent control. The lid was turned carefully to its regular position and put on top of a petri dish filled with 5 ml PBS. […] The changes in gene expression in the presence or absence of the drug were compared. Changes in mesodermal marker representative of cardiogenesis was used to calculate ID50 values of the tested compounds, and the densitometry of the band intensities performed in case of RT-PCR, or CT values in case of qPCR, were used to calculate the ID50 values.

[2] = Table 5; cited from earlier work
[3] = cited from earlier work
hES, hEBs and HFF = experiment: CyQUANT/survival cytotoxicity, cell type not given; assay type: cell-based, human; conditions: cell type not stated; for cell survival: CyQUANT
Procedure: Cytotoxicity analysis of three cell types (hES, hEBs and HFF) was evaluated using the CyQUANT assay following compound treatment. All data were the mean of three independent experiments for each cell type. Data is represented as the mean±SE.

[4] = 0.1 μg/ml, day 15 hEBs, FIG. 5B

O=c1[nH]cc(F)c(=O)[nH]1 [5-Fluorouracil, 5-fluorouracil]
down-regulation of ALB gene expression ([1]; 0.001 μg/ml, day 15 hEBs, FIG. 5B): 40% | decrease in NFH levels ([1]; 0.01 μg/ml, day 15 hEBs, FIG. 5B): 60% | down-regulation of AFP gene expression [1, 4]: 80% | down-regulation of MSX1 expression [1, 4]: 15% | down-regulation of NANOG expression [1, 4]: 25% | gene expression levels of ACTC1, KRT, CD34, BMP4, and BMP5 ([1]; 0.0001-0.1 μg/ml, day 15 hEBs, FIG. 5B): no change | lineage markers down-regulated / affected [1]: all the three lineage markers are effected

CS(=O)(=O)OCCCCOS(C)(=O)=O [Busulfan, busulfan]
Effects on fetus [2]: Reproductive | General toxicity [2]: Hematopoietic | Therap. range in human serum [3]: <0.6 µg/mL | Therap. range in human serum ([3]; listed as busulfan): less than 0.6 μg/ml

Cn1c(=O)c2c(ncn2C)n(C)c1=O [Caffeine, caffeine]
General toxicity [2]: Cardiac, CNS | decrease of AFP expression ([1]; 50 μg/ml, day 15 hEBs, FIG. 6B): 80% | decrease of NFH expression ([1]; 50 μg/ml, day 15 hEBs, FIG. 6B): 80% | decrease of keratin expression ([1]; 50 μg/ml, day 15 hEBs, FIG. 6B): 85% | decrease of ACTC1 expression ([1]; 500 μg/ml, day 15 hEBs, FIG. 6B): 40% | expression levels of NANOG, CD34, BMP4, MSX1, and BMP5 ([1]; day 15 hEBs, FIG. 6B): no significant change | cell survival percentage compared to controls (hES, hEBs and HFF; 50 μg/ml, FIG. 3B): significant decrease | cell survival (hES, hEBs and HFF; 500 μg/ml, FIG. 4C): 20%

NC(=O)NO [Hydroxyurea, hydroxyurea]
Therap. range in human serum [3]: <9.88 µg/mL

COc1ccc2c(c1)c(CC(=O)O)c(C)n2C(=O)c1ccc(Cl)cc1 [Indomethacin, indomethacin]
General toxicity [2]: Cardiac, Renal | cell survival (hES, hEBs and HFF; 100 μg/ml, FIG. 4D): 20-30%

CC1(C)S[C@@H]2[C@H](NC(=O)Cc3ccccc3)C(=O)N2[C@H]1C(=O)O [Penicillin G, penicillin G]
Effects on fetus [2]: None in Humans | General toxicity [2]: Hypersensitivity | ALB levels ([1]; 10 μg/ml, day 15 hEBs, FIG. 7): decreased | AFP levels decreased to ([1]; 100 μg/ml, day 15 hEBs, FIG. 7): 40% | markers of ectoderm, mesoderm, and endoderm other than AFP and ALB ([1]; day 15 hEBs, FIG. 7A): no significant change | expression of AFP and ALB ([1]; highest dose (5000 μg/ml), day 15 hEBs, FIG. 7B): complete loss of expression | lineage markers down-regulated / affected [1]: only endodermal markers are down-regulated | Therap. range in human serum [3]: 300 to 500 µg/mL
